# Reference: patent publication US9421206B1, “Hematological treatments based on levomefolate” (Cox Bioscience LLC, priority 2013, dated 2016)
# Where two headings read alike, the source gives them in different places.
# Legend:
# [1] = tested on: Megaloblastic Bone Marrow Cells (B12 Deficiency); conditions: cited from earlier work
# [2] = tested on: Megaloblastic Bone Marrow Cells (Folate Deficiency); conditions: cited from earlier work
# [3] = apparently healthy human subjects; cited from earlier work
# [4] = Evaluation of NHANES 1999-2002 data: hematological markers by serum folate decile, supplement use and unmetabolized folic acid; assay type: in vivo, human; conditions: for effect on production of hemoglobin: seniors aged >=60 y, serum hemoglobin with rising serum folate, with or without unmetabolized folic acid; for impact on homocysteine, methylmalonic acid and lactate dehydrogenase: when homocysteine or lactate dehydrogenase levels are elevated; for effect on MCV: with rising serum folate, with or without supplement use
# From the text: An evaluation of data gathered through NHANES was undertaken to determine the effect of unmetabolized folic acid on serum hemoglobin concentrations. NHANES monitors the nation's health and nutritional status. The survey is currently implemented as a continuous annual survey and uses a complex multistage probability design to select a representative sample of the non-institutionalized US civilian population. Consistent with NHANES analytic guidelines, this example combines data from two separate survey periods spanning 1999-2002. The methods used herein are described in greater detail in Morris et al., AM. J. CLIN. NUTR. 2012; 91:1733-44, and are repeated herein for a more thorough understanding. A detailed description of blood collection and processing can be found in the NHANES Laboratory Procedures Manual. This particular example focuses on seniors (i.e., those aged ≧60 y), and included 3706 senior survey participants. Hemoglobin concentrations were measured at the MEC laboratory by using a MAXM hematology flow cytometer (Beckman Coulter Inc, Fullerton, Calif.). Detailed methods for all the biochemical assays can be found in the NHANES Laboratory Procedures Manuals. Eligible participants were divided into ten […] based on their serum folate concentrations, so that decile 1 includes the 10% of the participants having the lowest serum folate concentrations, decile 10 includes the 10% of the participants having the highest serum folate concentrations. etc. Participants in each decile were then further subdivided based on the detection of unmetabolized folic acid, and/or the participant's serum B12 or serum iron concentration, and mean hemoglobin concentrations calculated for each decile. Data analyses were performed by using SUDAAN release 9.0 (Research Triangle Institute, Research Triangle Park, N.C.) with appropriate sampling weights, pseudo primary sampling units, and stratification variables to account for the survey's complex sampling design.
# [5] = Reanalysis of NHANES 1988-1994 vs 1999-2004: impact of folic acid supplement use on anemia and macrocytosis; assay type: in vivo, human; conditions: men; 1988-1994 to 1999-2004, with increased use of folic acid supplements
# From the text: In order to determine whether folic acid supplements could be affecting the incidence of macrocytosis in the United States or whether folic acid supplements could be negatively influencing macrocytic processes, NHANES data reported in Ganji et al., AM. J. CLIN. NUTR. 2009; 89:363-71, were reanalyzed, this time over an extended time period from 1988-1994 until 1999-2004, to determine the impact of supplement use on the incidence of macrocytosis and mean corpuscular volume. Unless otherwise indicated, NHANES data collection methods were substantially the same as in Examples 1 and 2. This study used data from 4 surveys: NHANES 1988-1994, NHANES 1999-2000, NHANES 2001-2002, and NHANES 2003-2004. […] For NHANES 1988-1994 and 1999-2004, multivariate-adjusted and univariate values for hemoglobin, hematocrit, and MCV and prevalence rates (%) for overall anemia and macrocytosis were determined according to sex, race-ethnicity, age, poverty, and vitamin/mineral supplement use (yes or no). Prevalence of anemia (%) based on low hemoglobin concentrations and prevalence of macrocytosis (%) based on high MCV values were determined for the aforementioned demographic categories. The differences in hemoglobin, hematocrit, MCV, and prevalence of anemia and macrocytosis between NHANES 1988-1994 and NHANES 1999-2004 were determined with a 2-tailed unpaired t test. […]
# [6] = B12 deficiency, concentration 0.3 (unit not given)
# [7] = B12 deficiency, concentration 1 (unit not given)
# [8] = B12 deficiency, concentration 3 (unit not given)
# [9] = B12 deficiency, concentration 6 (unit not given)
# [10] = B12 deficiency, concentration 15 (unit not given)
# [11] = B12 deficiency, concentration 30 (unit not given)
# [12] = B12 deficiency, concentration 75 (unit not given)
# [13] = B12 deficiency, concentration 300 (unit not given)
# [14] = concentration 0.3 (unit not given)
# [15] = concentration 1 (unit not given)
# [16] = concentration 3 (unit not given)
# [17] = concentration 6 (unit not given)
# [18] = concentration 15 (unit not given)
# [19] = concentration 30 (unit not given)
# [20] = concentration 300 (unit not given)
Compound,"dU suppression test value [1, 6] [%]","dU suppression test value [1, 7] [%]","dU suppression test value [1, 8] [%]","dU suppression test value [1, 9] [%]","dU suppression test value [1, 10] [%]","dU suppression test value [1, 11] [%]","dU suppression test value [1, 12] [%]","dU suppression test value [1, 13] [%]","dU suppression test value [2, 14] [%]","dU suppression test value [2, 15] [%]","dU suppression test value [2, 16] [%]","dU suppression test value [2, 17] [%]","dU suppression test value [2, 18] [%]","dU suppression test value [2, 19] [%]","dU suppression test value [2, 20] [%]",effect on production of hemoglobin [4],"impact on homocysteine, methylmalonic acid and lactate dehydrogenase [4]",effect on MCV [4],further results
tetrahydrofolate [THF],10.8,8.1,9.3,6.3,4.9,5.0,3.5,2.4,14.3,8.6,4.0,2.5,2.1,2.2,1.9,,,,level giving correction of dU suppression ([1]; megaloblastic anemia due to vitamin B12 deficiency): above 6 mL/ml
"CN1c2c(nc(N)[nH]c2=O)NC[C@@H]1CNc1ccc(C(=O)N[C@@H](CCC(=O)[O-])C(=O)[O-])cc1.[Ca+2] [me-THF, L-5-methyltetrahydrofolate]",,,16.1,,,12.9,18.4,15.7,,,3.9,4.6,2.7,4.5,4.3,promotes the production of hemoglobin,positive impact,generally leads to a reduction in MCV,concentration restoring normal dU suppression ([1]; vitamin B12 deficiency): > 300 µg/mL; effect on homocysteine levels [3]: decrease homocysteine levels
Nc1nc2ncc(CNc3ccc(C(=O)N[C@@H](CCC(=O)O)C(=O)O)cc3)nc2c(=O)[nH]1 [folic acid],,14.8,12,,,,,,,10.3,,,,,,reduces the production of hemoglobin,negative impact,leads to increases in MCV,"dU suppression test value ([1]; B12 deficiency, concentration 50 (unit not given)): 4.1%; incidence of macrocytosis [5]: increased; prevalence of anemia [5]: dropped; dU suppression test value ([2]; concentration 5 (unit not given)): 5.5%; dU suppression test value ([2]; concentration 50 (unit not given)): 2.3%; effect on MCV in survey participants with elevated LDH levels ([4]; LDH > 198 U/L, as folate concentrations increased): increased the MCV; effect on red cell count ([4]; same folate levels, with vs without folic acid supplements): red cell count is improved in the absence of folic acid"
"α-(5,6-dimethylbenzimidazolyl)cobamide [B12]",,,,,,,,,,,,,,,,,,,"dU suppression test value ([1]; B12 deficiency, 10 mcg/ml): 5.8%; dU suppression test value ((3H)-TdR incorporation with dU as percentage of incorporation without dU) ([1]; B12 deficiency, 100 mcg/ml): 5.7%; dU suppression test value ([2]; 10 mcg/ml): 12.3%; dU suppression test value ([2]; 100 mcg/ml): 16.3%"
Nc1nc(=O)c2c([nH]1)NCC(CNc1ccc(C(=O)N[C@@H](CCC(=O)O)C(=O)O)cc1)N2C=O (mixture of isomers) [folinic acid],4.5,2.5,1.9,2.0,2.2,1.6,,,3.4,1.9,1.9,1.3,,1.0,,,,,effectiveness in overcoming the defect in DNA precursor synthesis ([1]; all types of vitamin deficiency): most effective
